Measurements as given in US20100004485A1, “GABAPENTIN ENACARBIL SALTS AND PROCESSES FOR THEIR PREPARATION” (priority 2008, published 2010).

Legend:
[1] = Solubility test in distilled water; type: physicochemical; settings: for Solubility in water (class in words) / Solubility (g/ml water): distilled water; for Solubility (g/ml water): 100 mg sample
Experimental: Solubility was determined by placing 100 mg of sample material in a 50 ml glass beaker, adding 10 μL portions of distilled water and agitating until dissolved.

[2] = Hygroscopicity / water content at room conditions (TGA, FIG. 6); type: physicochemical; settings: for Hygroscopicity: room conditions, GBPE-Ca compared to GBPE sodium salt
Experimental: Thermogravimetric Analysis (“TGA”) • TGA data obtained from TGA/DSC 1 of Mettler-Toledo or TA Instruments TGA 2959 • Heating range: 25-200 C; heating rate: 10° C./min, • Nitrogen flow 40 ml/min • Mass weight about 10 mg.

[3] = Thermogravimetric analysis (TGA): temperature at which thermal decomposition starts; type: physicochemical; settings: 25-200 C, 10° C./min, nitrogen
[4] = long period of storing

| Compound | Solubility in water (class in words) [1] | Hygroscopicity [2] | Water content when kept in room conditions ([2]; FIG. 6) | Temperature at which decomposition starts [3] [°C] | Solubility (g/ml water) [1] [g/mL] | Stability of form during storage [4] | Solubility compared to GBPE sodium salt [1] |
| --- | --- | --- | --- | --- | --- | --- | --- |
| CC(OC(=O)NCC1(CC(=O)O)CCCCC1)OC(=O)C(C)C (stereo not drawn) [GBPE amorphous, 1-{[(α-isobutanoyloxyethoxy)carbonyl]-aminomethyl}-1-cyclohexane acetic acid, reference compound] | insoluble | – | – | – | – | – | – |
| CC(OC(=O)NCC1(CC(=O)[O-])CCCCC1)OC(=O)C(C)C.[Na+] (stereo not shown) [GBPE sodium salt, reference compound] | – | extremely hydrophilic | – | – | – | – | – |
| CC(OC(=O)NCC1(CC(=O)[O-])CCCCC1)OC(=O)C(C)C.CC(OC(=O)NCC1(CC(=O)[O-])CCCCC1)OC(=O)C(C)C.[Ba+2] (stereo not shown) [GBPE-Ba salt] | freely soluble (a compound having a solubility of about 0.1 to about 1 g/ml) | non-hygroscopic | contained no water | 60 | 0.125 | stability over a long period of time | – |
| CC(OC(=O)NCC1(CC(=O)[O-])CCCCC1)OC(=O)C(C)C.CC(OC(=O)NCC1(CC(=O)[O-])CCCCC1)OC(=O)C(C)C.[Ca+2] (stereo not shown) [GBPE-Ca salt] | sparingly soluble (a compound having a solubility of about 0.01 g/ml to about 0.03 g/ml) | less hygroscopic | – | 70 | 0.016 | – | less soluble |
| CC(OC(=O)NCC1(CC(=O)[O-])CCCCC1)OC(=O)C(C)C.CC(OC(=O)NCC1(CC(=O)[O-])CCCCC1)OC(=O)C(C)C.[Mg+2] (stereo not shown) [GBPE-Mg salt] | sparingly soluble (a compound having a solubility of about 0.01 g/ml to about 0.03 g/ml) | – | – | 70 | 0.020 | – | – |
